Measured values: the NIST ThermoML archive (doi:10.1021/je049672l)

Details: for mass density: Vibrating tube method; for vapor or sublimation pressure: Closed cell (Static) method

CC(C)C [2-methylpropane]
Fluid (supercritical or subcritical phases)
Details | mass density [kg/m3]
240 K, 484.1 kPa | 617.68
240 K, 1027.4 kPa | 618.3
240 K, 1538.4 kPa | 618.86
240 K, 2037.8 kPa | 619.41
240 K, 2522.8 kPa | 619.95
240 K, 3029.3 kPa | 620.49
240 K, 3501.9 kPa | 621
240 K, 4038.4 kPa | 621.58
240 K, 4542.1 kPa | 622.1
240 K, 5022.8 kPa | 622.62
240 K, 5522.1 kPa | 623.14
240 K, 5987.3 kPa | 623.62
240 K, 6540.8 kPa | 624.19
240 K, 7010.9 kPa | 624.66
260 K, 517.1 kPa | 595.93
260 K, 947.4 kPa | 596.52
260 K, 1503.8 kPa | 597.28
260 K, 1984.7 kPa | 597.94
260 K, 2532 kPa | 598.66
260 K, 3005.3 kPa | 599.28
260 K, 3472.2 kPa | 599.9
260 K, 4015.9 kPa | 600.6
260 K, 4464.7 kPa | 601.16
260 K, 4915.7 kPa | 601.73
260 K, 5481.6 kPa | 602.44
260 K, 5953.7 kPa | 603.05
260 K, 6532 kPa | 603.75
260 K, 7031.7 kPa | 604.37
280 K, 512.2 kPa | 573.26
280 K, 996 kPa | 574.1
280 K, 1532.9 kPa | 575.01
280 K, 2000.6 kPa | 575.8
280 K, 2508.1 kPa | 576.64
280 K, 2999.4 kPa | 577.44
280 K, 3506 kPa | 578.27
280 K, 4015.2 kPa | 579.09
280 K, 4460.5 kPa | 579.8
280 K, 4938.8 kPa | 580.54
280 K, 5494.5 kPa | 581.39
280 K, 5986.9 kPa | 582.16
280 K, 6507.2 kPa | 582.93
280 K, 6980.4 kPa | 583.64
300 K, 476.5 kPa | 548.51
300 K, 1017.6 kPa | 549.71
300 K, 1462.4 kPa | 550.7
300 K, 1999.9 kPa | 551.86
300 K, 2533.3 kPa | 552.99
300 K, 3021.3 kPa | 554.01
300 K, 3526.2 kPa | 555.05
300 K, 3965.8 kPa | 555.93
300 K, 4482.8 kPa | 556.96
300 K, 4980.2 kPa | 557.93
300 K, 5467.8 kPa | 558.87
300 K, 5953.2 kPa | 559.79
300 K, 6460.3 kPa | 560.72
300 K, 7025.2 kPa | 561.79
320 K, 1063 kPa | 522.78
320 K, 1503.5 kPa | 524.1
320 K, 2072.9 kPa | 525.74
320 K, 2548.7 kPa | 527.08
320 K, 3037.4 kPa | 528.43
320 K, 3521.6 kPa | 529.72
320 K, 4027.5 kPa | 531.05
320 K, 4496.4 kPa | 532.26
320 K, 4946.7 kPa | 533.39
320 K, 5450.3 kPa | 534.62
320 K, 5960.5 kPa | 535.86
320 K, 6511.5 kPa | 537.15
320 K, 6995.3 kPa | 538.27
340 K, 1494.6 kPa | 493.98
340 K, 2007.1 kPa | 496.16
340 K, 2499.6 kPa | 498.13
340 K, 3002.8 kPa | 500.07
340 K, 3503.8 kPa | 501.94
340 K, 4023.8 kPa | 503.83
340 K, 4507.3 kPa | 505.51
340 K, 5017.1 kPa | 507.23
340 K, 5520.7 kPa | 508.89
340 K, 5998.3 kPa | 510.42
340 K, 6512.9 kPa | 512.03
340 K, 6962.7 kPa | 513.39
360 K, 2008.5 kPa | 460.57
360 K, 2503.6 kPa | 463.81
360 K, 2997.5 kPa | 466.82
360 K, 3502.9 kPa | 469.71
360 K, 4027.6 kPa | 472.55
360 K, 4532.2 kPa | 475.11
360 K, 5024.7 kPa | 477.51
360 K, 5482.2 kPa | 479.63
360 K, 6006.8 kPa | 481.96
360 K, 6485.4 kPa | 484.01
360 K, 6987.7 kPa | 486.08
380 K, 2517.9 kPa | 417.11
380 K, 3027.5 kPa | 423.54
380 K, 3511 kPa | 428.79
380 K, 4014.9 kPa | 433.63
380 K, 4487.2 kPa | 437.71
380 K, 4990.6 kPa | 441.69
380 K, 5519.1 kPa | 445.53
380 K, 6019.7 kPa | 448.91
380 K, 6503.3 kPa | 451.96
380 K, 6952.1 kPa | 454.64

Liquid
Details | mass density [kg/m3] | vapor or sublimation pressure [kPa]
240 K | 617.17 | 40.1
260 K | 595.32 | 94.6
280 K | 572.74 | 197.8
300 K | 548.27 | 368.6
320 K | 521.48 | 632.5
340 K | 491.87 | 1013.7
360 K | 457.33 | 1541.6
380 K | 413.34 | 2250.4
